The term IC50 denotes the midpoint of a concentration-inhibition curve. A higher IC50 goes with a need for much substance.

Experimental findings from patent US5561042A, “Diamine platinum naphthalimide complexes as antitumor agents” (Cancer Therapy and Research Center, priority 1995, dated 1996) are described below.

Entries after “also recorded” stand apart in the source; their conditions may differ.

Assay [1] has as its system P388 murine leukemic cell line. Briefly: In vitro growth inhibition (MTT), P388 leukemia. It is filed as cell-based. Particulars: 3 days. From the text: (§1) P388 murine leukemic cell line was obtained from the DCT Tumor Repository (National Cancer Institute, Frederick Cancer Research and Development, Frederick Md. 21702). HT29 Human Colon Carcinoma cell line was obtained from the American Type Culture Collection (12301 Parklawn Drive, Rockville, Md. 20852). B16 Melanoma cell line was obtained from DuPont Merck Pharmaceutical Company (Glenolden, Pa. 19036). MCF-7 Human Breast Carcinoma cell line was a gift from Dr. K. Osborne (Department of Medicine, The University of Texas Health Science Center at San Antonio, San Antonio, Tex. 78284). All cell lines were incubated at 37° C. in a humidified atmosphere of 5% CO2 -95% air. Murine B16 melanoma cell line was grown in RPMI 1640 medium supplemented with 10% heat-inactivated fetal bovine serum, 2 mM L-glutamine, 50 units/ml penicillin, 50 μg/ml streptomycin, 25 μg/ml gentamycin, 0.75% sodium bicarbonate, 10 mM HEPES buffer (pH 7.4), and 0.06 mg/ml AntiPPLO. Murine P388 leukemic and the human HT-29 colon adenocarcinoma cell lines were maintained in RPMI 1640 medium supplemented with 10% heat-inactivated fetal bovine serum. MCF-7M human breast adenocarcinoma was maintained in IMEM medium supplemented with 5% non heat-inactivated fetal bovine serum and 1 nM insulin.
(§2) Exponentially growing cells (1-2×10^3 cells, unless specified otherwise) in 0.1 ml medium were seeded on day 0 in a 96-well microtiter plate. On day 1, 0.1 ml aliquots of medium containing graded concentrations of test compounds were added in duplicate to the cell plates. After incubation at 37° C. in a humidified incubator for 3 days (P388, B16) or 6 days (HT-29, MCF-7M), the plates were centrifuged briefly and 100 μl of the growth medium was removed. Cell cultures were incubated with 50 μl of 3-(4,5-dimethylthiazol-2-yl)-2,5-diphenyl-tetrazolium bromide [MTT, 1 mg/ml in Dulbecco's phosphate buffered saline (PBS)] for 4 hr at 37° C. The resulting purple formazan precipitate was solubilized with 200 μl of 0.04N HCl in isopropyl alcohol. Absorbance was monitored in a BioRad Model 3550 Microplate Reader at a test wavelength of 570 nm and a reference wavelength of 630 nm. The absorbance was transferred to a PC 486 computer. The IC50 values were determined by a computer program (EZ-ED50) that fit all of the data to the following four-parameterlogistic equation:
(§3) Y=((Am -Ao)/(1+(X/IC50)^n))+Ao
(§4) where Am is the absorbance of control cells, Ao is the absorbance of cells in the presence of highest agent concentration, Y is the observed absorbance, X is the agent concentration, IC50 is the concentration of agent that inhibits the cell growth by 50% of control cells (based on the absorbance) and n is the slope of the curve.

Assay [2] has as its system HT29 Human Colon Carcinoma cell line. Briefly: In vitro growth inhibition (MTT), HT29 colon carcinoma. It is filed as cell-based. The settings on record: 6 days.
Text: as §1, §2, §3, §4

Assay [3] relates to EcoRI and Taq1 digested SV40 DNA. Kind of assay: DNA crosslinking, EcoRI/Taq I digested SV40 DNA, alkaline agarose gel. It is filed as binding. The settings on record: 0.5 and 1 μM, 37° C., 17 hours. As to the method:
Isolated SV40 DNA (Gibco BRL) was digested with EcoRI (3 units/μg DNA) (Promega #R6011) at 37° C. for two hours, and concentrated through a spin column (Microcon 50, Amicon, Inc.). The EcoRI digested SV40 DNA was then digested with Taq I (3 units/μg DNA) (Promega #6151) at 65° C. for an additional 2 hours. After digestion, DNA was extracted once with phenol/chloroform/isoamyl alcohol (25:24:1), and once with chloroform/isoamyl alcohol (24:1). The digested DNA was then labelled on the 5' end with ^32 P using the DuPont/NEN T4 polynucleotide kinase 5' end labelling system and […]. Labelled DNA was loaded onto a pre-equilibrated Sephadex 25 spin purification column (Quick-spin, Boehringer-Mannheim Biochemicals) and eluted into 400 μl TE (20 mM Tris HCl, 1 mM EDTA). Eluted DNA was ethanol precipitated overnight at -20° C. and spun in an Eppendorf microcentrifuge for 1 hour at 4° C., 14,000 rpm.
Precipitated DNA was suspended in TE (20 mM Tris HCl, pH 8, 1 mM EDTA) at approximately 0.1 μg/μl and incubated at 37° C. for 17 hours in a 50 μl volume with 0, 0.5, 1.0, 1.5 or 2 μM compound 21. Following drug treatment, DNA was again ethanol precipitated, spun down, dried briefly and suspended in 20 μl water. […]

“8-(3'-nitro-1',8'-naphthalimide)-3,6-diazaoctylamine dichloroplatinum(II) [Compound 21]”: the 50% inhibitory concentration (IC50) in assay [1] is 302 nM; in assay [2] it was 129 nM. The “formation of DNA cross links (in words)” value in assay [3] was “formation of higher molecular weight DNA, around 4.6 and 5.8 Kb; also recorded: cross-linked DNA of 4.6-5.8 Kb”.
